Tests used:
Type in all cases: functional
Mus musculus [1] = experiment: Reduction of serum cholesterol in CF1 male mice on day 16 following 20 mg/kg/day i.p. administration.; settings: route intraperitoneal
Mus musculus [2] = experiment: Reduction of serum cholesterol in CF1 male mice on day 9 following 20 mg/kg/day i.p. administration.; settings: route intraperitoneal
Mus musculus [3] = experiment: Reduction of serum triglycerides in CF1 male mice on day 16 following 20 mg/kg/day i.p. administration.; settings: route intraperitoneal
Mus musculus [4] = experiment: Hypolipidemic effects in CF1 male mice at a dose 150 mg/(kg day), ip, percent control of serum cholesterol was determined on day 16
Mus musculus [5] = experiment: Hypolipidemic effects in CF1 male mice at a dose 150 mg/(kg day), ip, percent control of serum triglyceride was determined on day 16
Mus musculus [6] = experiment: Hypolipidemic effects in CF1 male mice at a dose 150 mg/(kg day), ip,percent control of serum cholesterol was determined on day 9

CC(=O)c1ccccc1Cn1[nH]c2ccccc2c1=O
Serum cholesterol, percent of control (Mus musculus [1]): 60% | Serum cholesterol, percent of control (Mus musculus [2]): 98% | Serum triglycerides, % of control (Mus musculus [3]): 41%

Oc1n[nH]c2ccccc12
Serum cholesterol, percent of control (Mus musculus [1]): 80% | Serum cholesterol, percent of control (Mus musculus [2]): 96% | Serum triglycerides, % of control (Mus musculus [3]): 75%

CCCCn1[nH]c2ccc(Cl)cc2c1=O
Serum cholesterol, percent of control (Mus musculus [1]): 74% | Serum cholesterol, percent of control (Mus musculus [2]): 76% | Serum triglycerides, % of control (Mus musculus [3]): 83%

CCCn1[nH]c2ccccc2c1=O
Serum cholesterol, percent of control (Mus musculus [1]): 68% | Serum cholesterol, percent of control (Mus musculus [2]): 92% | Serum triglycerides, % of control (Mus musculus [3]): 77%

CC(=O)c1cccc(Cn2[nH]c3ccccc3c2=O)c1
Serum cholesterol, percent of control (Mus musculus [1]): 70% | Serum cholesterol, percent of control (Mus musculus [2]): 86% | Serum triglycerides, % of control (Mus musculus [3]): 56%

CCOC(=O)C(C)(C)Oc1ccc(Cl)cc1 [CLOFIBRATE]
Control (Mus musculus [4]): 87% | Control (Mus musculus [5]): 75% | Control (Mus musculus [6]): 92%

CC(=O)c1ccc(Cn2[nH]c3ccccc3c2=O)cc1
Serum cholesterol, percent of control (Mus musculus [1]): 75% | Serum cholesterol, percent of control (Mus musculus [2]): 76% | Serum triglycerides, % of control (Mus musculus [3]): 50%

O=c1c2ccccc2[nH]n1CCCO
Serum cholesterol, percent of control (Mus musculus [1]): 83% | Serum cholesterol, percent of control (Mus musculus [2]): 96% | Serum triglycerides, % of control (Mus musculus [3]): 72%

CCn1[nH]c2ccccc2c1=O
Serum cholesterol, percent of control (Mus musculus [1]): 71% | Serum cholesterol, percent of control (Mus musculus [2]): 98% | Serum triglycerides, % of control (Mus musculus [3]): 71%

CCCCCn1[nH]c2ccccc2c1=O
Serum cholesterol, percent of control (Mus musculus [1]): 73% | Serum cholesterol, percent of control (Mus musculus [2]): 79% | Serum triglycerides, % of control (Mus musculus [3]): 77%

CCCCn1[nH]c2ccccc2c1=O
Serum cholesterol, percent of control (Mus musculus [1]): 46% | Serum cholesterol, percent of control (Mus musculus [2]): 92% | Serum triglycerides, % of control (Mus musculus [3]): 44%

CCOC(=O)n1c2ccccc2c(=O)n1CCC(=O)O
Serum cholesterol, percent of control (Mus musculus [1]): 77% | Serum cholesterol, percent of control (Mus musculus [2]): 88% | Serum triglycerides, % of control (Mus musculus [3]): 70%

O=C1NC(=O)c2ccccc21 [PHTHALIMIDE]
Serum cholesterol, percent of control (Mus musculus [1]): 57% | Serum cholesterol, percent of control (Mus musculus [2]): 63% | Serum triglycerides, % of control (Mus musculus [3]): 44%

O=c1c2ccccc2[nH]n1CCO
Serum cholesterol, percent of control (Mus musculus [1]): 83% | Serum cholesterol, percent of control (Mus musculus [2]): 97% | Serum triglycerides, % of control (Mus musculus [3]): 63%

CC(=O)CCn1[nH]c2ccccc2c1=O
Serum cholesterol, percent of control (Mus musculus [1]): 46% | Serum cholesterol, percent of control (Mus musculus [2]): 78% | Serum triglycerides, % of control (Mus musculus [3]): 46%

CCCCn1[nH]c2ccc(C)cc2c1=O
Serum cholesterol, percent of control (Mus musculus [1]): 97% | Serum cholesterol, percent of control (Mus musculus [2]): 95% | Serum triglycerides, % of control (Mus musculus [3]): 81%

CCCCn1[nH]c2cc(Cl)ccc2c1=O
Serum cholesterol, percent of control (Mus musculus [1]): 75% | Serum cholesterol, percent of control (Mus musculus [2]): 98% | Serum triglycerides, % of control (Mus musculus [3]): 69%

CCOC(=O)n1[nH]c(=O)c2ccccc21
Serum cholesterol, percent of control (Mus musculus [1]): 60% | Serum cholesterol, percent of control (Mus musculus [2]): 78% | Serum triglycerides, % of control (Mus musculus [3]): 61%

O=c1c2ccccc2[nH]n1Cc1ccccc1
Serum cholesterol, percent of control (Mus musculus [1]): 72% | Serum cholesterol, percent of control (Mus musculus [2]): 83% | Serum triglycerides, % of control (Mus musculus [3]): 58%

Cn1[nH]c2ccccc2c1=O
Serum cholesterol, percent of control (Mus musculus [1]): 69% | Serum cholesterol, percent of control (Mus musculus [2]): 92% | Serum triglycerides, % of control (Mus musculus [3]): 72%

Reference: ChEMBL document CHEMBL1122669, “Hypolipidemic activity of phthalimide derivatives. 7. Structure-activity studies of indazolone analogues” (1984)
